Reference: ChEMBL document CHEMBL6109101, “Synthesis and bioactivity of cyclic peptide GG-8-6 analogues as anti-hepatocellular carcinoma agents” (Eur J Med Chem, 2025)
Activity calls are given as the source filed them. No cut-off for these calls is given here.

Key:
[1] = Toxicity in nude mouse implanted with human MHCC97H cells assessed as body weight at 15 mg/kg, po administered daily for 3 weeks and measured immediately (reference value: 25.05 g); type: organism-based; conditions: in vivo, 504 h
[2] = Toxicity in nude mouse implanted with human MHCC97H cells assessed as spleen damage at 5 to 15 mg/kg, po administered daily for 3 weeks by H and E staining based analysis; type: organism-based; conditions: in vivo, 504 h, dose 5-15 mg/kg
[3] = Toxicity in nude mouse implanted with human MHCC97H cells assessed as body weight at 15 mg/kg, po administered daily for 3 weeks and measured at day 22 (reference value: 26.38 g); type: organism-based; conditions: in vivo, 1032 h, time 43 day
[4] = Toxicity in nude mouse implanted with human MHCC97H cells assessed as body weight at 10 mg/kg, po administered daily for 3 weeks and measured immediately (reference value: 25.05 g); type: organism-based; conditions: in vivo, 504 h
[5] = Toxicity in nude mouse implanted with human MHCC97H cells assessed as body weight at 5 mg/kg, po administered daily for 3 weeks and measured at day 22 (reference value: 26.38 g); type: organism-based; conditions: in vivo, 1032 h, time 43 day
[6] = Toxicity in nude mouse implanted with human MHCC97H cells assessed as body weight at 5 mg/kg, po administered daily for 3 weeks and measured immediately (reference value: 25.05 g); type: organism-based; conditions: in vivo, 504 h
MHCC97H [7] = assay: Cytotoxicity against human MHCC97H cells assessed as inhibition of cell proliferation incubated for 48 hrs by MTT assay; type: functional, cell-based
[8] = Toxicity in nude mouse implanted with human MHCC97H cells assessed as liver damage at 5 to 15 mg/kg, po administered daily for 3 weeks by H and E staining based analysis; type: organism-based; conditions: in vivo, 504 h, dose 5-15 mg/kg
HCCLM3 [9] = assay: Cytotoxicity against human HCCLM3 cells assessed as inhibition of cell proliferation incubated for 48 hrs by MTT assay; type: functional, cell-based; conditions: HCCLM3, 48 h
[10] = Toxicity in nude mouse implanted with human MHCC97H cells assessed as heart damage at 5 to 15 mg/kg, po administered daily for 3 weeks by H and E staining based analysis; type: organism-based; conditions: in vivo, 504 h, dose 5-15 mg/kg
[11] = Toxicity in nude mouse implanted with human MHCC97H cells assessed as body weight at 10 mg/kg, po administered daily for 3 weeks and measured at day 22 (reference value: 26.38 g); type: organism-based; conditions: in vivo, 1032 h, time 43 day
[12] = Toxicity in nude mouse implanted with human MHCC97H cells assessed as kidney damage at 5 to 15 mg/kg, po administered daily for 3 weeks by H and E staining based analysis; type: organism-based; conditions: in vivo, 504 h, dose 5-15 mg/kg
Huh-7 [13] = assay: Cytotoxicity against human Huh-7 cells assessed as inhibition of cell proliferation incubated for 48 hrs by MTT assay; type: functional, cell-based; conditions: Huh-7, 48 h
HepG2 [14] = assay: Cytotoxicity against human HepG2 cells assessed as inhibition of cell proliferation incubated for 48 hrs by MTT assay; type: functional, cell-based; conditions: HepG2, 48 h
[15] = Toxicity in nude mouse implanted with human MHCC97H cells assessed as lung damage at 5 to 15 mg/kg, po administered daily for 3 weeks by H and E staining based analysis; type: organism-based; conditions: in vivo, 504 h, dose 5-15 mg/kg
MHCC97H [16] = assay: Antitumor activity against human MHCC97H cells xenografted in nude mouse assessed as tumor growth inhibition at 5 mg/kg, po administered daily for 3 weeks relative to control; type: functional; conditions: 504 h, read-out: TGI
MHCC97H [17] = assay: Antiproliferative activity against human MHCC97H cells assessed as reduction in intracellular ATP level at 10 uM incubated for 48 hrs by luminometer analysis relative to control; type: functional; design: scale not given: the % may be the effect or the level left
MHCC97H [18] = assay: Antitumor activity against human MHCC97H cells xenografted in nude mouse assessed as tumor weight at 5 mg/kg, po administered daily for 3 weeks (reference value: 1.667g); type: functional
HCCLM3 [19] = assay: Antiproliferative activity against human HCCLM3 cells assessed as reduction in intracellular ATP level at 10 uM incubated for 48 hrs by luminometer analysis relative to control; type: functional; design: scale not given: the % may be the effect or the level left
Huh-7 [20] = assay: Antiproliferative activity against human Huh-7 cells assessed as reduction in intracellular ATP level at 10 uM incubated for 48 hrs by luminometer analysis relative to control; type: functional; design: scale not given: the % may be the effect or the level left
MHCC97H [21] = assay: Antitumor activity against human MHCC97H cells xenografted in nude mouse assessed as tumor growth inhibition at 15 mg/kg, po administered daily for 3 weeks relative to control; type: functional; conditions: 504 h, read-out: TGI
HepG2 [22] = assay: Antiproliferative activity against human HepG2 cells assessed as reduction in intracellular ATP level at 10 uM incubated for 48 hrs by luminometer analysis relative to control; type: functional; design: scale not given: the % may be the effect or the level left
MHCC97H [23] = assay: Antitumor activity against human MHCC97H cells xenografted in nude mouse assessed as tumor weight at 15 mg/kg, po administered daily for 3 weeks (reference value: 1.667g); type: functional
MHCC97H [24] = assay: Antitumor activity against human MHCC97H cells xenografted in nude mouse assessed as tumor weight at 10 mg/kg, po administered daily for 3 weeks (reference value: 1.667g); type: functional
MHCC97H [25] = assay: Antiproliferative activity against human MHCC97H cells assessed as reduction in intracellular ATP level at 30 uM incubated for 48 hrs by luminometer analysis relative to control; type: functional; design: scale not given: the % may be the effect or the level left
MHCC97H [26] = assay: Antitumor activity against human MHCC97H cells xenografted in nude mouse assessed as tumor growth inhibition at 10 mg/kg, po administered daily for 3 weeks relative to control; type: functional; conditions: 504 h, read-out: TGI
HCCLM3 [27] = assay: Cytotoxicity against human HCCLM3 cells assessed as reduction in cell viability up to 40 uM measured at 48 hrs by MTT assay; type: functional, cell-based
HCCLM3 [28] = assay: Cytotoxicity against human HCCLM3 cells assessed as reduction in cell viability at 40 uM measured at 48 hrs by MTT assay; type: functional, cell-based
MHCC97H [29] = assay: Cytotoxicity against human MHCC97H cells assessed as reduction in cell viability at 40 uM measured at 48 hrs by MTT assay; type: functional, cell-based
HCCLM3 [30] = assay: Cytotoxicity against human HCCLM3 cells assessed as cell viability incubated at 12 to 48 hrs hrs by MTT assay; type: functional, cell-based; conditions: dose <= 40.0 µM, time 12-48 hrs
HCCLM3 [31] = assay: Cytotoxicity against human HCCLM3 cells assessed as reduction in cell viability at 40 uM by MTT assay; type: functional, cell-based; conditions: time 48.0 hrs
HCCLM3 [32] = assay: Cytotoxicity against human HCCLM3 cells assessed as cell viability up to 40 uM by MTT assay; type: functional, cell-based; conditions: time 12-48 hrs
MHCC97H [33] = assay: Cytotoxicity against human MHCC97H cells assessed as cell viability incubated at 12 to 48 hrs hrs by MTT assay; type: functional, cell-based; conditions: dose <= 40.0 µM, time 12-48 hrs
HCCLM3 [34] = assay: Cytotoxicity against human HCCLM3 cells assessed as cell viability up to 40 uM measured at 24 to 48 hrs by MTT assay; type: functional, cell-based; conditions: time 24-48 hrs
MHCC97H [35] = assay: Cytotoxicity against human MHCC97H cells assessed as cell viability up to 40 uM measured at 24 to 48 hrs by MTT assay; type: functional, cell-based; conditions: time 24-48 hrs
MHCC97H [36] = assay: Cytotoxicity against human MHCC97H cells assessed as cell viability up to 40 uM measured at 12 hrs by MTT assay; type: functional, cell-based
HCCLM3 [37] = assay: Cytotoxicity against human HCCLM3 cells assessed as cell viability up to 40 uM measured at 12 hrs by MTT assay; type: functional, cell-based
MHCC97H [38] = assay: Antitumor activity against human MHCC97H cells xenografted in nude mouse assessed as increase in apoptotic cells at 15 mg/kg, po administered daily for 3 weeks by TUNEL staining based assay; type: functional, organism-based
MHCC97H [39] = assay: Cytotoxicity against human MHCC97H cells assessed as cell viability up to 40 uM by MTT assay; type: functional, cell-based; conditions: time 12-48 hrs
MHCC97H [40] = assay: Cytotoxicity against human MHCC97H cells assessed as reduction in cell viability up to 40 uM measured at 48 hrs by MTT assay; type: functional, cell-based
MHCC97H [41] = assay: Cytotoxicity against human MHCC97H cells assessed as reduction in cell viability at 40 uM by MTT assay; type: functional, cell-based; conditions: time 48.0 hrs

CC[C@H](C)[C@@H]1NC(=O)[C@@H]2CCCN2C(=O)[C@H](CC(C)C)NC(=O)[C@H](CO)NC(=O)[C@H](CC(C)C)NC(=O)[C@H](C(C)C)NC(=O)[C@H](CC(C)C)NC(=O)[C@H](CC(C)C)NC(=O)[C@H](CC(C)C)NC1=O [listing 1 of 2 here]
Activity [1]: 24.9 g | Activity [2]: Non-toxic | Activity [3]: 26.3 g | Activity [4]: 25 g | Activity [5]: 26.38 g | Activity [6]: 25.43 g | IC50 (MHCC97H [7]): 33.3 µM | Activity [8]: Non-toxic | IC50 (HCCLM3 [9]): 35.7 µM | Activity [10]: Non-toxic | Activity [11]: 26.3 g | Activity [12]: Non-toxic | IC50 (Huh-7 [13]): > 100 µM | IC50 (HepG2 [14]): > 100 µM | Activity [15]: Non-toxic

CC[C@H](C)[C@@H]1NC(=O)[C@@H]2CCCN2C(=O)[C@H](CC(C)C)NC(=O)[C@H](CO)NC(=O)[C@H](CC(C)C)NC(=O)[C@H](C(C)C)NC(=O)[C@H](CC(C)C)NC(=O)[C@H](CC(C)C)NC(=O)[C@H](CC(C)C)NC1=O [listing 2 of 2 here]
inhibition in vivo at 5 mg/kg (MHCC97H [16]): 66.9% | Activity (MHCC97H [17]): 47.3% | Activity (MHCC97H [18]): 0.552 g | Activity (HCCLM3 [19]): 45.9% | Activity (Huh-7 [20]): 47.3% | inhibition in vivo at 15 mg/kg (MHCC97H [21]): 58.4% | Activity (HepG2 [22]): 47.1% | Activity (MHCC97H [23]): 0.695 g | Activity (MHCC97H [24]): 0.732 g | Activity (MHCC97H [25]): 61.9% | inhibition in vivo at 10 mg/kg (MHCC97H [26]): 56.1%

CC[C@@H](C)[C@H]1NC(=O)[C@@H]2CCCN2C(=O)[C@@H](CC(C)C)NC(=O)[C@H](CO)NC(=O)[C@@H](CC(C)C)NC(=O)[C@H](C(C)C)NC(=O)[C@H](CC(C)C)NC(=O)[C@H](CC(C)C)NC(=O)[C@H](CC(C)C)NC1=O
Activity (HCCLM3 [27]): Active | Activity (HCCLM3 [28]): Active | Activity (MHCC97H [29]): Active | Activity (HCCLM3 [30]): Dose-dependent-effect | Activity (HCCLM3 [31]): Time-dependent-effect | Activity (HCCLM3 [32]): Time-dependent-effect | Activity (MHCC97H [33]): Dose-dependent-effect | Activity (HCCLM3 [34]): Active | Activity (MHCC97H [35]): Active | Activity (MHCC97H [36]): Active | Activity (HCCLM3 [37]): Active | Activity (MHCC97H [38]): Active | Activity (MHCC97H [39]): Time-dependent-effect | Activity (MHCC97H [40]): Active | Activity (MHCC97H [41]): Time-dependent-effect
